Reference: patent US20080318070A1, “Water-Soluble Preflux and Usage of the Same” (SHIKOKU CHEMICALS CORPORATION, priority 2005, published 2008)

Experiments:
[1] = Solubilization test of imidazole compounds; format: physicochemical; conditions: 0.20 g imidazole compound dissolved in 2.0 g carboxylic acid compound; ion-exchange water added until solution became clouded; larger = better solubilization
Description: Solubilization Test of Imidazole Compounds
After 0.20 g of 2-pheny-(3,4-dichlorophenyl)imidazole was dissolved in 2.0 g of the carboxylic acid compound for use in the invention, there was measured an amount of water required until the solution became clouded when ion-exchange water was added. The larger amount of water is judged to be more excellent in imidazole compound-solubilization performance of the carboxylic acid compound.
It is recognized that a chemical structure wherein an alkoxy group (R^1—O—) and a carboxymethyl group (—CH2COOH) or a carboxyethyl group (—C2H4COOH) is combined via an alkylene ether chain (—CH2CH(R^2)—O—) enhances the imidazole compound-solubilization performance.

[2] = reported; cited from earlier work

SMILES	Amount of water added [1]	metabolism in the living body [2]	toxic effect [2]
CCCCOCC(C)OCC(C)OCC(C)OCC(=O)O (centres unmarked) [Compound G, 2-{2-[2-(2-butoxy-1-methylethoxy)-1-methylethoxy]-1-methylethoxy}acetic acid]	2.0 mL	–	–
CCCOCC(=O)O [2-(n-Propoxy)acetic acid]	2.8 mL	–	–
CCCCOCC(=O)O [2-(n-Butoxy)acetic acid]	1.0 mL	–	–
CCOCCOCCOCC(=O)O [Compound C, 2-[2-(2-ethoxyethoxy)ethoxy]acetic acid]	3.6 mL	–	–
CCOCC(=O)O [Compound A, 2-Ethoxyacetic acid]	3.3 mL	–	–
COCC(=O)O [methoxyacetic acid]	–	difficult to metabolize in the living body	causing testicular atrophy or teratogenicity
CCCOCC(C)OCC(C)OCC(=O)O (centres unmarked) [Compound F, 2-[2-(2-propoxy-1-methylethoxy)-1-methylethoxy]acetic acid]	3.0 mL	–	–
